Results reported in ChEMBL document CHEMBL1154643, “Biaryl purine derivatives as potent antiproliferative agents: inhibitors of cyclin dependent kinases. Part I” (Bioorg Med Chem Lett, 2009).

Tests used:
[1] = Antiproliferative activity against human HeLaS3 cells by sulforhodamine B assay; assay type: functional; settings: HeLa S3
[2] = molecular target: Cyclin-dependent kinase 2/cyclin E (Homo sapiens, UniProt P24941); assay: Inhibition of recombinant CDK2/cyclin E; assay type: protein-complex assay
[3] = molecular target: Cyclin-dependent kinase 2/cyclin A (Homo sapiens, UniProt P24941); assay: Inhibition of recombinant CDK2/cyclin A; assay type: protein-complex assay

Row | IC50 [2] [nM] | IC50 [3] [nM] | Structure (SMILES) | GI50 [1] [nM]
1 | – | – | CC[C@H](CO)Nc1nc(NCc2ccc(-c3ccccc3)cc2)c2ncn(C(C)C)c2n1 | 400
2 | 200 | 400 | Cc1ccc(-c2ccc(CNc3nc(N[C@H]4CC[C@H](N)CC4)nc4c3ncn4C(C)C)cc2)cc1 | –
3 | > 5000 | > 5000 | CC(C)n1cnc2c(NCc3ccc(-c4ccccc4)cc3)nc(N[C@H]3CC[C@H](NS(=O)(=O)C(F)(F)F)CC3)nc21 | –
4 | 250 | 500 | Cc1ccc(-c2ccc(CNc3nc(N[C@H]4CC[C@H](N)CC4)nc4c3ncn4C(C)C)cc2)cc1C | –
5 | 900 | 2000 | CC(C)n1cnc2c(NCc3ccc(-c4ccccc4)cc3)nc(N[C@@H]3CCCC[C@H]3N)nc21 | –
6 | > 5000 | > 5000 | CC(C)n1cnc2c(NCc3ccc(-c4ccccc4)cc3)nc(N3CCC(C(N)=O)CC3)nc21 | –
7 | 300 | 900 | CC(C)n1cnc2c(NCc3ccc(-c4ccccc4)cc3)nc(N[C@H]3CC[C@H](NCC4CC4)CC3)nc21 | –
8 | 400 | 3000 | CC(C)n1cnc2c(NCc3ccc(-c4ccccc4)cc3)nc(NCCCN)nc21 | –
9 | 300 | 500 | CC(=O)N[C@H]1CC[C@H](Nc2nc(NCc3ccc(-c4ccccc4)cc3)c3ncn(C(C)C)c3n2)CC1 | –
10 | 400 | 900 | CC(C)n1cnc2c(NCc3ccc(-c4ccccc4)cc3)nc(N[C@@H]3CCCC[C@@H]3N)nc21 | –
11 | 3000 | 6000 | CCN(CC)[C@H]1CC[C@H](Nc2nc(NCc3ccc(-c4ccccc4)cc3)c3ncn(C(C)C)c3n2)CC1 | –
12 | 300 | 600 | CC(C)n1cnc2c(NCc3ccc(-c4ccccc4)cc3)nc(N[C@H]3CC[C@H](NC(=O)CC4CC4)CC3)nc21 | –
13 | 400 | 400 | CC(C)n1cnc2c(NCc3ccc(-c4ccccc4)cc3)nc(N[C@H]3CC[C@H](O)CC3)nc21 | –
14 | 500 | 600 | CC(C)n1cnc2c(NCc3ccc(-c4ccccc4)cc3)nc(NCCN)nc21 | –
15 | 300 | 1000 | CCCCN[C@H]1CC[C@H](Nc2nc(NCc3ccc(-c4ccccc4)cc3)c3ncn(C(C)C)c3n2)CC1 | –
16 | 800 | 1000 | CC(C)n1cnc2c(NCc3ccc(-c4ccccc4)cc3)nc(NC[C@H](C)NC(=O)OC(C)(C)C)nc21 | –
17 | 3000 | 3000 | CC(C)n1cnc2c(NCc3ccc(-c4ccccc4)cc3)nc(N3CCC(N)C3)nc21 (centres undefined) | –
18 | 200 | 500 | CCC(=O)N[C@H]1CC[C@H](Nc2nc(NCc3ccc(-c4ccccc4)cc3)c3ncn(C(C)C)c3n2)CC1 | –
19 | 900 | 1000 | CC(C)n1cnc2c(NCc3ccc(-c4ccccc4)cc3)nc(NC3CCCC(N)C3)nc21 (centres undefined) | –

Row | IC50 [2] [nM] | IC50 [3] [nM] | Structure (SMILES) | GI50 [1] [nM]
20 | 600 | 2000 | CC(C)n1cnc2c(NCc3ccc(-c4ccccc4)cc3)nc(NC3(CO)CCCC3)nc21 | –
21 | 800 | 1000 | Cn1cnc2c(NCc3ccc(-c4ccccc4)cc3)nc(N[C@H]3CC[C@H](N)CC3)nc21 | –
22 | 2500 | 4000 | CC(C)n1cnc2c(NCc3ccc(-c4ccccc4)cc3)nc(NCC3CCNCC3)nc21 | –
23 | 900 | 2000 | CC(C)n1cnc2c(NCc3ccc(-c4ccccc4)cc3)nc(NC[C@H](C)N)nc21 | –
24 | 200 | 400 | Cc1cc(C)cc(-c2ccc(CNc3nc(N[C@H]4CC[C@H](N)CC4)nc4c3ncn4C(C)C)cc2)c1 | –
25 | 3000 | 3000 | CC(C)n1cnc2c(NCc3ccc(-c4ccccc4)cc3)nc(NCCCCN)nc21 | –
26 | 200 | 500 | CC(C)n1cnc2c(NCc3ccc(-c4ccccc4)cc3)nc(N[C@H]3CC[C@H](NS(C)(=O)=O)CC3)nc21 | –
27 | 400 | 400 | CC(C)n1cnc2c(NCc3ccc(-c4cccc(Cl)c4)cc3)nc(N[C@H]3CC[C@H](N)CC3)nc21 | –
28 | 150 | 350 | COc1cccc(-c2ccc(CNc3nc(N[C@H]4CC[C@H](N)CC4)nc4c3ncn4C(C)C)cc2)c1 | –
29 | 4000 | 5000 | CC(Nc1nc(N[C@H]2CC[C@H](N)CC2)nc2c1ncn2C(C)C)c1ccc(-c2ccccc2)cc1 (some centres undefined) | –
30 | 400 | 500 | CCCN[C@H]1CC[C@H](Nc2nc(NCc3ccc(-c4ccccc4)cc3)c3ncn(C(C)C)c3n2)CC1 | –
31 | 90 | 100 | N[C@H]1CC[C@H](Nc2nc(NCc3ccc(-c4ccccc4)cc3)c3ncn(C4CCCC4)c3n2)CC1 | –
32 | 800 | 1000 | CC(C)n1cnc2c(NCCc3ccc(-c4ccccc4)cc3)nc(N[C@H]3CC[C@H](N)CC3)nc21 | 5000
33 | 200 | 300 | Cc1cccc(-c2ccc(CNc3nc(N[C@H]4CC[C@H](N)CC4)nc4c3ncn4C(C)C)cc2)c1 | –
34 | 600 | 1000 | CC(C)n1cnc2c(NCc3ccc(-c4ccccc4Cl)cc3)nc(N[C@H]3CC[C@H](N)CC3)nc21 | –
35 | 1000 | 4000 | CC(C)n1cnc2c(NCc3ccc(-c4ccccc4)cc3)nc(N3CCC(CN)CC3)nc21 | –
36 | 1000 | 3000 | CCN[C@H]1CC[C@H](Nc2nc(NCc3ccc(-c4ccccc4)cc3)c3ncn(C(C)C)c3n2)CC1 | –
37 | – | – | Cn1cnc2c(NCc3ccccc3)nc(NCCO)nc21 [OLOMOUCINE] | 65000
38 | – | – | CC[C@H](CO)Nc1nc(NCc2ccccc2)c2ncn(C(C)C)c2n1 [SELICICLIB] | 20000
